Source: article PMC3144702, “Structural and Functional Analysis of the Complex between Citrate and the Zinc Peptidase Carboxypeptidase A” (2011)

Columns and labels:
[1] = molecular target: T1, carboxypeptidase A (Bos taurus, UniProt P00730); experiment: X-ray crystal structure at […] Å; Ki from competitive inhibition assay with AAFP substrate; format: biochemical
T1 construct: gene CPA1
T1 sequence (P00730 111-419): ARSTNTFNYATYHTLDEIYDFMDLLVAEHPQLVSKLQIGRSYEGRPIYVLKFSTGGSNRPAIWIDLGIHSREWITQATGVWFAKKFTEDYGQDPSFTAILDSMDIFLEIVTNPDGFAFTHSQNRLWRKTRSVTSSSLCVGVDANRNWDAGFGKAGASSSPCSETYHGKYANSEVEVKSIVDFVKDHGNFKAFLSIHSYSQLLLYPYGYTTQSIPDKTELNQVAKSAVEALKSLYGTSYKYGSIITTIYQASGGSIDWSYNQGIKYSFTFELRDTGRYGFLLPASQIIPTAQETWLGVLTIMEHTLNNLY

[2] = molecular target: T1, carboxypeptidase A; experiment: competitive enzyme inhibition assay with AAFP substrate, absorbance; Ki from IC50 by Cheng-Prusoff; format: biochemical

| SMILES | Ki [1] [µM] | Ki [2] [µM] |
| --- | --- | --- |
| O=C(O)CC(O)(CC(=O)O)C(=O)O [citrate] | 5000 |  |
| O=C(O)C[C@@H](Cc1ccccc1)C(=O)O [BzlSA, benzylsuccinic acid] |  | 0.52 |
